Test results taken from the NIST ThermoML archive (doi:10.1016/j.tca.2012.03.018).
± gives the expanded uncertainty stated by the source.

Experiment: molar enthalpy of vaporization or sublimation
Details: Liquid

With `CCn1cc[n+](C)c1.O=S(=O)([N-]S(=O)(=O)C(F)(F)F)C(F)(F)F` the molar enthalpy (525 K) was 26.4 ± 0.717 kcal/mol.
Work on `CCCCOC(=O)c1ccccc1C(=O)OCCCC` [dibutyl phthalate] yielded a molar enthalpy (393 K) of 20.1 ± 0.382 kcal/mol.
`CCCCCCCCCCCCCCCCCC(=O)OCC` [ethyl octadecanoate] showed a molar enthalpy (373 K) of 22 ± 0.335 kcal/mol and a molar enthalpy (383.5 K, Transpiration) of 22.3 ± 0.335 kcal/mol.
`CCCCCCCCCCCCCCCC` [hexadecane] showed a molar enthalpy (333.5 K, Transpiration) of 17.9 ± 0.191 kcal/mol and a molar enthalpy (353 K) of 17.8 ± 0.382 kcal/mol.
Compound `CCCCCCCCCCCCCCCCCC(=O)OC` [methyl octadecanoate] has a molar enthalpy (353 K) of 21.6 ± 0.239 kcal/mol.
